Some results are limits rather than exact numbers.

By IC50 is commonly meant the concentration needed to halve the response being measured. Low readings indicate greater potency, high ones weaker potency.

The target of the assay is T1, Human eIF4E (Homo sapiens, UniProt P06730).
T1 construct: Human eIF4E (aa 28-217) with a C-terminal His-tag; made in house
T1 sequence (P06730 28-217): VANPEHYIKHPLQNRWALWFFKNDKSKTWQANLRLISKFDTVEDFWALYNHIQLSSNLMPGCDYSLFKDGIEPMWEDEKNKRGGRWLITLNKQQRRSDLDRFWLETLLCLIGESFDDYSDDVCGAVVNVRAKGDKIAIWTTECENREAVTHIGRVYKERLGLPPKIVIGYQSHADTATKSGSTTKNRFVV
Nature of the assay: Human eIF4E/4G2 binding assay (TR-FRET). Conditions: purified human eIF4E (aa 28-217), biotin labeled 4G2 peptide, 4 hours preincubation at room temperature. How it is done:
Example 3. Compound Testing in Human eIF4E/4G2 Binding Assay
Human eIF4E (aa 28-217) with a C-terminal His-tag was expressed in E. coli in inclusion bodies. The protein was solubilized with 8 M urea and purified under denaturing conditions using nickel-charged HisTrap HP columns (GE Healthcare). The purified protein was then refolded by diluting in 20 mM Hepes pH 7.0, 0.5 M NaCl, 1 mM DTT, 1 mM EDTA, 0.5 M arginine plus 6 M urea, and then dialyzing overnight into the same buffer without the urea. The protein was further dialyzed into 20 mM Hepes, pH 6.5, 50 mM NaCl, 1 mM EDTA, 1 mM DTT, and concentrated using Hitrap SP sepharose FF columns (GE Healthcare). The concentrated protein was dialyzed into 20 mM Hepes, pH 7.0, 0.5 M NaCl, 5 mM DTT and 10% glycerol, and stored at -80° C. until use.
Test compounds (3.43 mM stock in DMSO) were diluted 2-fold in series in DMSO (10 concentration points). Compound solutions (1.2 µl/well) were added into black 384-well polypropylene microplates (Matrix, Thermal Scientific). Twenty-two microliters per well of Assay Buffer (50 mM NaPi, pH 6.5, 50 mM KCl, 1 mM DTT and 0.5 mg/ml gamma globulin) and eight microliters per well of 82.5 nM purified eIF4E in Assay Buffer were added. The samples were incubated at room temperature (20-23° C.) for 4 hours. Biotin labeled 4G2 peptide (Ac-Lys-Gln-Tyr-Asp-Arg-Glu-Phe-Leu-Leu-Asp-Phe-Gln-Phe-Met-Pro-Lys(Aha-Bio)-NH2, 1.75 µM stock in DMSO) was diluted to 0.14 µM in Assay Buffer (without DTT) and 5 µl/well was added. The samples were incubated at room temperature for 20 min. Five microliters per well of 6.4 nM Eu-streptavidin (Eu-SA, Perkin Elmer) and 80 nM Allophycocyanin (APC)-anti His antibody (Columbia Biosciences) in Assay Buffer (without DTT) were then added and the samples were incubated at room temperature for 20 min.
Assay signals were monitored by reading excitation at 340 nm and emission fluorescence at 615 nm and 665 nm on an Envision reader (Perkin Elmer). Normalized TR-FRET (time-resolved fluorescence resonance energy transfer) assay signal (Rn) was calculated by the formula: Rn = [(A-Ba-C x D)/(D-Bd)] x (Dc- Bd) • Where A is the fluorescence intensity of the sample at 665 nm, • D is the fluorescence intensity of the sample at 615 nm, • Ba and Bd are plate backgrounds at 665 nm and 615 nm, respectively, • Dc is the fluorescence intensity of 0.78 nM Eu-SA in the assay buffer at 615 nm • The cross-talk factor (C) is determined by the following formula: • C = (Ac- Ba)/(Dc-Bd) • Where Ac is the fluorescence intensity of 0.78 nM Eu-SA in the assay buffer at 665 nm.
IC50 values were calculated using xLFit program (IDBS). Table 2 below lists […] of some compounds, wherein A represents IC50 ≤ 0.5 µM; B represents 0.5 uM < IC50 ≤ 1 µM; and C represents IC50 > 1 µM.
(In general: TR-FRET usually uses a lanthanide donor and a delayed reading to cut background.)
The compound `COCCCOc1ccc(-c2nc(Nc3ncc(-c4cccs4)cc3C(=O)O)sc2CC(C)C)cc1Cl` [I-48] displayed an IC50 of at most 500 nM.
As for `COc1cc(-c2nc(Nc3ncc(-c4cccs4)cc3C(=O)O)sc2CC(C)C)cc(C(F)(F)F)c1` [I-104, 2-((5-isobutyl-4-(3-methoxy-5-(trifluoromethyl)phenyl)thiazol-2-yl)amino)-5-(thiophen-2-yl)nicotinic acid], the IC50 was at most 500 nM.
Then `COCCOc1cc(-c2nc(Nc3ncc(-c4cccs4)cc3C(=O)O)sc2CC(C)C)ccc1F` [I-59], with 500 to 1000 nM; and `CC(C)Cc1sc(Nc2ncc(-c3cccs3)cc2C(=O)O)nc1-c1ccc(O)c(Cl)c1` [I-1, 2-((4-(3-chloro-4-hydroxyphenyl)-5-isobutylthiazol-2-yl)amino)-5-(thiophen-2-yl)nicotinic acid], with at most 500 nM.
Consider `COCCOc1cccc(-c2nc(Nc3ncc(-c4cccs4)cc3C(=O)O)sc2CC(C)C)c1` [I-122, 2-((5-isobutyl-4-(3-(2-methoxyethoxy)phenyl)thiazol-2-yl)amino)-5-(thiophen-2-yl)nicotinic acid], for which the half-maximal inhibitory concentration (IC50) is at most 500 nM.
Then `CCOc1cc(-c2nc(Nc3ncc(-c4cccs4)cc3C(=O)O)sc2CC(C)C)ccc1Cl` [I-80], with at most 500 nM; and `COCCOc1ccc(-c2nc(Nc3ncc(-c4cc(C)cs4)cc3C(=O)O)sc2CC(C)C)cc1F` [I-42], with at most 500 nM; and `O=C(O)c1sc(-c2ccccc2)cc1Nc1nc(-c2ccc(O)cc2)c(C2CC2)s1` [I-24], with above 1000 nM.
Turning to `O=C(O)c1cc(-c2cccs2)cnc1Nc1nc(-c2ccc(OC3CC3)cc2)c(C2CC2)s1` [I-19], the IC50 was 500 to 1000 nM.
Turning to `CC(C)Cc1sc(Nc2ncc(-c3cccs3)cc2C(=O)O)nc1-c1ccc(OCC(N)=O)cc1` [I-17, 2-((4-(4-(2-amino-2-oxoethoxy)phenyl)-5-isobutylthiazol-2-yl)amino)-5-(thiophen-2-yl)nicotinic acid], the IC50 was at most 500 nM.
Then `CC(C)Cc1sc(Nc2cc(-c3ccccc3)sc2C(=O)O)nc1-c1ccc(OC2CC2)cc1` [I-14], with 500 to 1000 nM; and `CC(C)Cc1sc(Nc2ncc(-c3cccs3)cc2C(=O)O)nc1-c1ccc(OC2CC2)cc1` [I-8], with at most 500 nM.
Next, `CC(C)Cc1sc(Nc2ncc(-c3cccs3)cc2C(=O)O)nc1-c1ccc(OC(F)(F)F)c(F)c1` [I-10]: at most 500 nM; `CCOc1cccc(-c2nc(Nc3ncc(-c4cccs4)cc3C(=O)O)sc2CC(C)C)c1` [I-79]: at most 500 nM.
In the case of `COCCOc1ccc(-c2nc(Nc3ncc(-c4cc(C)cs4)cc3C(=O)O)sc2CC(C)C)cc1Cl` [I-44], the IC50 was at most 500 nM.
Compound `COCCOc1ccc(-c2nc(Nc3ncc(-c4cccs4)cc3C(=O)O)sc2CC2CCCCC2)cc1F` [I-72] came in with an IC50 of at most 500 nM.
As for `Cc1ccc(-c2cnc(Nc3nc(-c4ccc(OC(F)F)cc4)c(CC(C)C)s3)c(C(=O)O)c2)s1` [I-33], the IC50 is above 1000 nM.
Next, `COCCOc1ccc(-c2nc(Nc3ncc(-c4cccs4)cc3C(=O)O)sc2C2CC2)cc1` [I-22]: 500 to 1000 nM; `Cc1ccc(-c2cnc(Nc3nc(-c4ccc(OC(F)F)cc4)c(C4CCCC4)s3)c(C(=O)O)c2)s1` [I-40]: at most 500 nM.
Then `COc1ccc(-c2nc(Nc3cnc(-c4cccs4)cc3C(=O)O)sc2CC(C)C)cc1F` [I-71], with 500 to 1000 nM; and `CC(C)Cc1sc(Nc2ncc(-c3cccs3)cc2C(=O)O)nc1-c1ccc(F)c(OC(C)C)c1` [I-86], with at most 500 nM; and `COCCOc1ccc(-c2nc(Nc3ncc(-c4cccs4)cc3C(=O)O)sc2CC(C)C)cc1` [I-16], with at most 500 nM.
Next, `CC(C)Cc1sc(Nc2ncc(-c3cccs3)cc2C(=O)O)nc1-c1cccc(Oc2ccccc2)c1` [I-129, 2-((5-isobutyl-4-(3-phenoxyphenyl)thiazol-2-yl)amino)-5-(thiophen-2-yl)nicotinic acid]: at most 500 nM.
`CC(C)Cc1sc(Nc2ncc(-c3cccs3)cc2C(=O)O)nc1-c1cccc(O)c1` [I-111]: the IC50 was in the range of 500 to 1000 nM.
Turning to `COc1cc(-c2nc(Nc3ncc(-c4cccs4)cc3C(=O)O)sc2CC(C)C)ccc1C(F)(F)F` [I-77], the IC50 was at most 500 nM.
Then `COc1cc(-c2nc(Nc3ncc(-c4cccs4)cc3C(=O)O)sc2CCC(C)C)ccc1C(F)(F)F` [I-88], with at most 500 nM.
Then `CCOc1cc(-c2nc(Nc3ncc(-c4cccs4)cc3C(=O)O)sc2CC(C)C)ccc1F` [I-81], with at most 500 nM; and `CCOCCOc1ccc(-c2nc(Nc3ncc(-c4cccs4)cc3C(=O)O)sc2CC(C)C)cc1F` [I-66], with at most 500 nM.
Then `CC(C)Cc1sc(Nc2ncc(-c3cccs3)cc2C(=O)O)nc1-c1ccc(OC(F)(F)F)c(Cl)c1` [I-9], with at most 500 nM; and `COCCOc1ccc(-c2nc(Nc3ncc(-c4ccsc4)cc3C(=O)O)sc2CC(C)C)cc1F` [I-55], with 500 to 1000 nM.
Compound `CCCOc1cccc(-c2nc(Nc3ncc(-c4cccs4)cc3C(=O)O)sc2CC(C)C)c1` [I-106] registered a half-inhibitory concentration (IC50) of at most 500 nM.
Next, `CC(C)Cc1sc(Nc2ncc(-c3cccs3)cc2C(=O)O)nc1-c1ccc2c(c1)OC(C)(C)O2` [I-125]: at most 500 nM; `COc1ccc(-c2nc(Nc3ncc(-c4cccs4)nc3C(=O)O)sc2CCC(C)C)cc1F` [I-62]: at most 500 nM.
Next, `COCCOc1ccc(-c2nc(Nc3ncc(-c4ccco4)cc3C(=O)O)sc2CC(C)C)cc1F` [I-57]: 500 to 1000 nM.
Then `CCOc1ccc(-c2nc(Nc3ncc(-c4cccs4)cc3C(=O)O)sc2CC(C)C)cc1` [I-11], with at most 500 nM; and `COCCOc1ccc(-c2nc(Nc3ncc(-c4cccc(F)c4)cc3C(=O)O)sc2CC(C)C)cc1F` [I-52], with at most 500 nM.
Take `Cc1ccc(-c2nc(Nc3ncc(-c4cccs4)cc3C(=O)O)sc2CC(C)C)cc1OC(C)C` [I-114]: the half-inhibitory concentration (IC50) was at most 500 nM.
Compound `CC(C)Cc1sc(Nc2ncc(-c3cccs3)cc2C(=O)O)nc1-c1ccc(O)cc1` [I-13] displayed an IC50 above 1000 nM.
Next, `COCCOc1ccc(-c2nc(Nc3ncc(-c4ccc(C)s4)cc3C(=O)O)sc2CC(C)C)cc1F` [I-41]: at most 500 nM; `CC(C)Cc1sc(Nc2ncc(-c3cccs3)cc2C(=O)O)nc1-c1ccc(F)c(OCCOC(C)C)c1` [I-87]: at most 500 nM.
Then `CC(C)Cc1sc(Nc2ncc(-c3cccs3)cc2C(=O)O)nc1-c1ccc(OCC(F)(F)F)cc1` [I-7], with at most 500 nM; and `CC(C)Cc1sc(Nc2ncc(-c3cccs3)cc2C(=O)O)nc1-c1cccc(OCC(F)(F)F)c1` [I-102], with at most 500 nM.
Next, `COCCOc1ccc(-c2nc(Nc3ncc(-c4cccs4)cc3C(=O)O)sc2CCC(C)C)cc1F` [I-46]: at most 500 nM; `CCc1ccc(-c2nc(Nc3ncc(-c4cccs4)cc3C(=O)O)sc2CC(C)C)cc1OC` [I-110]: at most 500 nM; `COc1ccc(-c2nc(Nc3cc(-c4ccccc4)sc3C(=O)O)sc2C2CC2)cc1` [I-21]: 500 to 1000 nM.
For the compound `CC(C)Cc1sc(Nc2ncc(-c3cccs3)cc2C(=O)O)nc1-c1ccc2c(c1)OCO2` [I-124, 2-((4-(benzo[d][1,3]dioxol-5-yl)-5-isobutylthiazol-2-yl)amino)-5-(thiophen-2-yl)nicotinic acid], the IC50 is at most 500 nM.
Then `COCCOc1ccc(-c2nc(Nc3ncc(-c4cccs4)cc3C(=O)O)sc2C2CC2)c(F)c1` [I-26], with above 1000 nM; and `CC(C)Cc1sc(Nc2ncc(-c3cccs3)cc2C(=O)O)nc1-c1ccc(OCCOC(C)C)c(F)c1` [I-67], with at most 500 nM.

The record behind these values is patent US20230150997A1, “EIF4E INHIBITORS AND USES THEREOF” (PIC Therapeutics, Inc., priority 2021, published 2023).
